Test results reported in the PolyMetriX glass transition set.
± gives the standard deviation of the reports.

SMILES | glass transition temperature [°C]
*c1ccc(Oc2ccc(-c3ccc(Oc4ccc(N5C(=O)c6ccc(Oc7ccc(C8(c9ccc(Oc%10ccc%11c(c%10)C(=O)N(*)C%11=O)cc9)CCCCCCCCCCC8)cc7)cc6C5=O)cc4)cc3C)c(C)c2)cc1 (repeat unit) | 257.00
*Oc1ccc(N[Se]Nc2ccc(*)cc2)cc1 (repeat unit) | 55.00
*O[Si](C)(C)CCC/N=C1C=C/C(=N/CCC[Si](*)(C)C)c2c(O)ccc(O)c2\1 (repeat unit) | 32.90
*CC(*)(CC(=O)OCCCCl)C(=O)OCCCCl (repeat unit) | 47.00
*Nc1cccc(NC(=O)CCCCCCCCC(=O)Nc2ccc(C(=O)NC(*)=S)cc2)c1 (repeat unit) | 265.00
*CC(*)OC(=O)C(F)(F)C(F)(F)C(F)(F)C(F)(F)C(F)(F)C(F)(F)C(F)(F)F (repeat unit) | -10.00
*CC(=O)C(*)c1ccc(C(C)(C)C)cc1 (repeat unit) | 158.00
*c1ccc(-c2ccc(-c3nc4ccc(-c5ccc6nc(*)c(-c7ccccc7)c(-c7ccccc7)c6c5)cc4c(-c4ccccc4)c3-c3ccccc3)cc2)cc1 (repeat unit) | 420.00
*C(=O)c1ccc(Oc2ccc(Oc3ccc(C(=O)c4ccc5c(c4)C(=O)N(c4ccc(Oc6ccc(N7C(=O)c8ccc(*)cc8C7=O)cc6)cc4)C5=O)cc3)cc2)cc1 (repeat unit) | 220.00
*c1ccc2c(c1)C(=O)N(c1ccc(Oc3cc(C(C)(C)C)c(Oc4ccc(N5C(=O)c6ccc(C(*)(C(F)(F)F)C(F)(F)F)cc6C5=O)cc4)cc3C(C)(C)C)cc1)C2=O (repeat unit) | 277.00
*CCC1C(=O)N(CCCCCCCCCCCC)C(=O)C1* (repeat unit) | 55.40
*CC(*)c1ccccc1C(=O)Nc1ccccc1 (repeat unit) | 191.00
*/C(C)=C(/*)SCCCCCCCCCC (repeat unit) | 60.00
*Oc1c(C)cc(*)cc1-c1ccccc1 (repeat unit) | 180.00
*CC(CC)(CO*)COC(=O)C(=C)C (repeat unit) | 40.00
*c1ccc(-c2ccc(-c3nc4cc(Oc5ccc6nc(-c7ccccc7)c(*)nc6c5)ccc4nc3-c3ccccc3)cc2)cc1 (repeat unit) | 410.00
*Oc1cc(OC(=O)c2ccc(OCC(C)CC)cc2)c(OC(=O)CCCC(*)=O)cc1OC(=O)c1ccc(OCC(C)CC)cc1 (repeat unit) | 60.00
*Oc1ccc(OC(=O)c2cc(/N=N/c3ccc(OCC)cc3)ccc2-c2ccc(/N=N/c3ccc(OCC)cc3)cc2C(*)=O)cc1 (repeat unit) | 170.00
*c1ccc2c(c1)C(=O)N(c1cccc(C(=O)Nc3ccc(Oc4ccc(Oc5ccc(NC(=O)c6cccc(N7C(=O)c8ccc(C(*)(C(F)(F)F)C(F)(F)F)cc8C7=O)c6)cc5)cc4)cc3)c1)C2=O (repeat unit) | 283.00
*OC(=O)CCCCCCCCC(=O)OC1COC2C(*)COC12 (repeat unit) | 3.00
*C(=O)Nc1cc(NC(=O)c2ccc3c(c2)C(=O)N(c2cc(-c4nc5ccccc5o4)cc(N4C(=O)c5ccc(*)cc5C4=O)c2)C3=O)cc(-c2nc3ccccc3[nH]2)c1 (repeat unit) | 371.00
*CC(O)COc1ccc(C(C)(C)c2ccc(OCC(O)COc3cccc(O*)c3)cc2)cc1 (repeat unit) | 83.00

SMILES | glass transition temperature [°C]
*Oc1ccc(C(C)(c2ccccc2)c2ccc(OC(=O)c3ccccc3-c3ccccc3C(*)=O)cc2)cc1 (repeat unit) | 172.00
*C(=O)c1cc(C(=O)c2ccc3c(c2)C(=O)N(c2ccc(Oc4ccc(S(=O)(=O)c5ccc(Oc6ccc(N7C(=O)c8ccc(*)cc8C7=O)cc6)cc5)cc4)cc2)C3=O)cc(-c2ccccc2)c1 (repeat unit) | 256.50
*Oc1ccc(C2(c3ccc(OC(*)=O)cc3)CCCC2)cc1 (repeat unit) | 166.00
*Oc1ccc(NC(=O)c2ccc(C(=O)Nc3ccc(Oc4ccc(C(=O)c5ccc(*)cc5)cc4)cc3)cc2)cc1 (repeat unit) | 160.00
*c1ccc([Si](c2ccccc2)(c2ccccc2)c2ccc(-c3nnc(-c4ccc(-c5nnc(*)o5)nc4)o3)cc2)cc1 (repeat unit) | 272.00
*Oc1ccc(CC(NC(=O)Cc2ccc(OC(=O)CCCCC(*)=O)cc2)C(=O)OCCCCCC)cc1 (repeat unit) | 36.00
*Oc1ccc(CC(NC(=O)CCc2ccc(OC(=O)CCCCCCCCC(*)=O)cc2)C(=O)OC(C)C)cc1 (repeat unit) | 44.00
*C1CC(*)(C#N)C1 (repeat unit) | 220.00
*CC(O)COc1c(C)cc(S(=O)(=O)c2cc(C)c(O*)c(C)c2)cc1C (repeat unit) | 152.50
*Oc1ccc(C(C)(C)c2ccc(OC(=O)c3ccc(C(c4ccc(C(*)=O)cc4)(C(F)(F)F)C(F)(F)F)cc3)cc2)cc1 (repeat unit) | 124.00
*Oc1cc(CCCCCC)cc(OC(=O)c2cccc(C(*)=O)c2)c1 (repeat unit) | 67.50
*Oc1ccc(OC(=O)c2ccc(C(*)=O)cc2Sc2ccccc2)cc1 (repeat unit) | 181.00
*c1cccc(C(O)c2cccc(N3C(=O)c4ccc(Oc5ccc6c(c5)C(=O)N(*)C6=O)cc4C3=O)c2)c1 (repeat unit) | 252.00
*CCCCCCNC(=O)Cc1ccc(C(=O)N*)cc1 (repeat unit) | 104.00
*CC(*)C1CCC(C)CC1 (repeat unit) | 132.00
*CCCCCCNC(=O)C(=O)N* (repeat unit) | 250.00
*OC(=O)c1cccc(OCCCCCCOc2cccc(C(=O)OC3COC4C(*)COC34)c2)c1 (repeat unit) | 43.50
*Nc1ccc(Cc2ccc(NC(=O)c3cc(C(*)=O)cc(S(=O)(=O)c4ccccc4)c3)cc2)cc1 (repeat unit) | 270.00
*Oc1c(Cl)cc(C(C)(C)c2cc(Cl)c(OC(*)=O)c(Cl)c2)cc1Cl (repeat unit) | 227.00
*c1cccc(-c2cc(C(=O)Nc3ccc(OC(=O)c4cc(OCCCCCCCCCCCC)c(OCCCCCCCCCCCC)c(OCCCCCCCCCCCC)c4)cc3)cc(-c3cccc(N4C(=O)CC(C5C=C(C)C6C(=O)N(*)C(=O)C6C5)C4=O)c3)c2)c1 (repeat unit) | 270.00
*CCN(CCOC(=O)c1cc(OCCN(C)c2ccc(S(=O)(=O)CCCCCCCC)cc2)cc(C(=O)O*)c1)c1ccc(S(=O)(=O)C(F)(F)C(F)(F)C(F)(F)C(F)(F)C(F)(F)C(F)(F)C(F)(F)C(F)(F)F)cc1 (repeat unit) | 80.00
*CC(*)CCCC (repeat unit) | -50.00

SMILES | glass transition temperature [°C]
*C(=O)c1ccc2c(c1)C(=O)N(c1cc(Br)c(Oc3c(Br)cc(N4C(=O)c5ccc(*)cc5C4=O)cc3Br)c(Br)c1)C2=O (repeat unit) | 323.00
*CCc1ccc(*)c(C)c1 (repeat unit) [Poly(methyl-p-xylylene) ] | 55 ± 1.9
*c1ccc(Oc2cccc(N3C(=O)c4ccc(Oc5cccc6c(Oc7ccc8c(c7)C(=O)N(*)C8=O)cccc56)cc4C3=O)c2)cc1 (repeat unit) | 235.00
*c1ccc2c(c1)C(=O)N(c1ccc(Oc3ccc(N4C(=O)c5ccc(C(F)(F)C(F)(F)C(F)(F)C(F)(F)C(F)(F)C(F)(F)C(F)(F)C(*)(F)F)cc5C4=O)cc3)cc1)C2=O (repeat unit) | 186.00
*OC(C)C(*)=O (repeat unit) [poly(l - lactic acid)] | 51.4 ± 43
*c1cc(-c2sc(-c3cc(CCCCCCCCCC)c(*)s3)cc2CCCCCCCCCC)c2cccccc1-2 (repeat unit) | 22.50
*CC(*)c1cc(C(=O)Oc2ccc(OCCCC)cc2)ccc1C(=O)Oc1ccc(OCCCC)cc1 (repeat unit) | 103.60
*CCC1C(=O)N(CCCC)C(=O)C1* (repeat unit) | 67.90
*c1ccc(Oc2ccc(-c3cccc4c3C(=O)N(Oc3ccc(C(=O)c5ccc(Oc6cccc7c6C(=O)N(*)C7=O)cc5)cc3)C4=O)cc2)cc1 (repeat unit) | 252.00
*Nc1ccc(Cc2ccc(NC(=O)c3cc(NC(=O)c4ccncc4)cc(C(*)=O)c3)cc2)cc1 (repeat unit) | 302.00
*CC(O)CN(CCO)CC(O)COc1ccc(C(C)(C)c2ccc(O*)cc2)cc1 (repeat unit) | 87.10
*CCOc1ccc(S(=O)(=O)c2ccc(OCCOP(=O)(O*)Oc3ccc([N+](=O)[O-])cc3)cc2)cc1 (repeat unit) | 56.00
*CCN(CCOC(=O)c1cccc(C(=O)O*)c1)c1ccccc1 (repeat unit) | 60.00
*Oc1ccc(Oc2ccc(NC(=O)c3ccc(-c4ccc(C(=O)Nc5ccc(*)cc5)c(C)c4)cc3C)cc2)cc1 (repeat unit) | 219.00
*C(=O)Nc1cccc(NC(=O)c2ccc3c(c2)C(=O)N(c2ccc(Oc4ccc(C5(c6ccc(Oc7ccc(N8C(=O)c9ccc(*)cc9C8=O)cc7)cc6)NC(=O)c6ccccc65)cc4)cc2)C3=O)c1 (repeat unit) | 328.00
*c1ccc(Oc2ccc(Sc3ccc(Oc4ccc(N5C(=O)c6ccc(Oc7ccc(Sc8ccc(Oc9ccc%10c(c9)C(=O)N(*)C%10=O)cc8)cc7)cc6C5=O)cc4)cc3)cc2)cc1 (repeat unit) | 186.00
*c1ccc(N(c2ccc(C#N)cc2)c2ccc(N3C(=O)c4ccc(Oc5ccc6c(c5)C(=O)N(*)C6=O)cc4C3=O)cc2)cc1 (repeat unit) | 304.00
*CC(*)(C)C(=O)OCCCCCCCCCCOc1ccc(/N=N/c2ccc(F)cc2)cc1 (repeat unit) | 49.00
*Oc1ccc(S(=O)(=O)c2ccc(Oc3ccc(C(c4ccc(*)cc4)(C(F)(F)F)C(F)(F)F)cc3)cc2)cc1 (repeat unit) | 199.70
*c1ccc(Cc2ccc(S(*)(=O)=O)cc2)cc1 (repeat unit) | 227.50
